Source: article PMC7144234, “Antiproliferative chromone derivatives induce K562 cell death through endogenous and exogenous pathways” (Journal of Enzyme Inhibition and Medicinal Chemistry, 2020)

Key:
L-02 = experiment: MTT assay, normal hepatic L-02 cell line; type: cell-based; conditions: human normal hepatic L-02 cell line
Method: (§1) The colorimetric MTT (3-(4,5-dimethylthiazol-2-yl)-2,5-diphenyltetrazolium bromide) assay was used to measure the cell viability of all of the above cell lines following treatment with target hybrids. Exponentially growing cells were added into 96-well plates at a concentration of 2000–4000 cells per well. Following attachment the cells were treated with varying concentrations (64, 16, 4, 1, 0.25, 0.0625 and 0.015625 µM) of target compounds in media and were kept for incubation for 72 h. MTT (20 µL, 5 mg/mL in PBS) was added to each well and the cells were incubated for another 3 h at 37 °C. Then the medium was removed, followed by the addition of 150 µL DMSO for each well. After that, the absorbance (OD) data of each well at 570 nm wavelength were measured by a Microplate Reader (BIO-RAD), and half inhibition rates (IC50) were calculated[59]^,[60].

HCT-116 = experiment: MTT antiproliferative assay, HCT-116; type: cell-based, human; conditions: 72 h, colorectal carcinoma HCT-116
Method: as §1

K562 = experiment: MTT antiproliferative assay, K562; type: cell-based, human; conditions: 72 h, chronic myeloid leukaemia K562
Method: as §1

MCF-7 = experiment: MTT antiproliferative assay, MCF-7; type: cell-based, human; conditions: breast carcinoma MCF-7
Method: as §1

HepG2 = experiment: MTT antiproliferative assay, HepG2; type: cell-based, human; conditions: 72 h, hepatoma HepG2
Method: as §1

B16 = experiment: MTT antiproliferative assay, B16; type: cell-based; conditions: 72 h, melanoma B16
Method: as §1

PBMC = experiment: MTT assay, peripheral blood mononuclear cells; type: cell-based, human; conditions: 72 h
Method: as §1

Molecule	IC50 (HCT-116; Homo sapiens) [µM]	IC50 (K562; Homo sapiens) [µM]	IC50 (MCF-7; Homo sapiens, MCF7, 72 h) [µM]	IC50 (HepG2; Homo sapiens) [µM]	IC50 (B16) [µM]	IC50 (HCT-116) [µM]	IC50 (K562) [µM]	IC50 (MCF-7; 72 h) [µM]	IC50 (HepG2) [µM]	IC50 (L-02; L02, 72 h) [µM]	IC50 (PBMC; Homo sapiens, PBMC) [µM]	IC50 (L-02; 72 h) [µM]	IC50 (PBMC) [µM]
O=c1[nH]cc(F)c(=O)[nH]1 [5-Fu, fluorouracil, reference compound]	6.86 ± 0.37	3.94 ± 0.17	26.7 ± 1.92	32.6 ± 1.98	12.6 ± 1.06	–	–	–	–	> 50	> 50	–	–
CC(CN)Oc1no[n+]([O-])c1S(=O)(=O)c1ccccc1 (stereo not shown) [5c, 4-((1-aminopropan-2-yl)oxy)-3-(phenylsulfonyl)-1,2,5-oxadiazole-2-oxide]	> 50	> 50	> 50	> 50	> 50	–	–	–	–	> 50	> 50	–	–
NCCOc1no[n+]([O-])c1S(=O)(=O)c1ccccc1 [5a, 4-(2-aminoethoxy)-3-(phenylsulfonyl)-1,2,5-oxadiazole-2-oxide]	29.9 ± 1.47	18.9 ± 0.73	> 50	21.8 ± 1.35	27.9 ± 1.23	–	–	–	–	> 50	> 50	–	–
Cc1ccc2occ(C(=O)O)c(=O)c2c1 [compound 10]	> 50	> 50	> 50	> 50	> 50	–	–	–	–	> 50	> 50	–	–
NCCCOc1no[n+]([O-])c1S(=O)(=O)c1ccccc1 [5b, 4-(3-aminopropoxy)-3-(phenylsulfonyl)-1,2,5-oxadiazole-2-oxide]	18.9 ± 1.67	20.3 ± 1.88	> 50	17.8 ± 1.43	22.9 ± 1.46	–	–	–	–	> 50	> 50	–	–
O=S(=O)(c1ccccc1)c1c(OCCN2CCNCC2)no[n+]1[O-] [5d, 3-(phenyl-sulfonyl)-4-(2-(piperazin-1-yl)ethoxy)-1,2,5-oxadiazole-2-oxide]	> 50	> 50	> 50	> 50	> 50	–	–	–	–	> 50	> 50	–	–
COc1ccc2occ(C(=O)O)c(=O)c2c1 [compound 11]	> 50	> 50	> 50	> 50	> 50	–	–	–	–	> 50	> 50	–	–

Second part, led by results:

IC50 (HCT-116; Homo sapiens) [µM]	IC50 (K562; Homo sapiens) [µM]	IC50 (MCF-7; Homo sapiens, MCF7, 72 h) [µM]	IC50 (HepG2; Homo sapiens) [µM]	IC50 (B16) [µM]	IC50 (HCT-116) [µM]	IC50 (K562) [µM]	IC50 (MCF-7; 72 h) [µM]	IC50 (HepG2) [µM]	Molecule	IC50 (L-02; L02, 72 h) [µM]	IC50 (PBMC; Homo sapiens, PBMC) [µM]	IC50 (L-02; 72 h) [µM]	IC50 (PBMC) [µM]
–	–	–	–	27.9 ± 1.23	29.6 ± 1.48	13.6 ± 0.85	> 50	19.9 ± 1.31	2-((1-(6-Methyl-4-oxo-4H-chromene-3-carboxamido)propan-2-yl)oxy)-3-(phenylsulfonyl)-1,2,5-oxadiazole 2-oxide [14a]	–	–	> 50	> 50
–	–	–	–	> 50	> 50	> 50	> 50	> 50	4-((1-((3-Carboxy-6-methyl-4-oxo-4H-chromen-2-yl)amino)propan-2-yl)oxy)-3-(phenylsulfonyl)-1,2,5-oxadiazole 2-oxide [14b]	–	–	> 50	> 50
–	–	–	–	> 50	> 50	> 50	> 50	> 50	4-((1-((3-Carboxy-6-methoxy-4-oxo-4H-chromen-2-yl)amino)propan-2-yl)oxy)-3-(phenylsulfonyl)-1,2,5-oxadiazole 2-oxide [15b]	–	–	> 50	> 50
> 50	> 50	> 50	> 50	> 50	–	–	–	–	Cc1ccc2occ(C(=O)NCCOc3no[n+]([O-])c3S(=O)(=O)c3ccccc3)c(=O)c2c1 [12a, (2-(6-Methyl-4-oxo-4H-chromene-3-carboxamido)ethoxy)-3-(phenylsulfonyl)-1,2,5-oxadiazole 2-oxide]	> 50	> 50	–	–
12.9 ± 1.02	4.07 ± 0.39	16.9 ± 1.29	9.56 ± 2.37	35 ± 1.25	–	–	–	–	COc1ccc2oc(N3CCN(CCOc4no[n+]([O-])c4S(=O)(=O)c4ccccc4)CC3)c(C(=O)O)c(=O)c2c1 [15d, 4-(2-(4-(3-Carboxy-6-methoxy-4-oxo-4H-chromen-2-yl)piperazin-1-yl)ethoxy)-3-(phenylsulfonyl)-1,2,5-oxadiazole 2-oxide]	> 50	> 50	–	–
–	–	–	–	31.4 ± 1.34	26.9 ± 1.61	12.5 ± 1.03	26.6 ± 1.6	21.3 ± 1.58	4-(2-((3-Carboxy-6-methyl-4-oxo-4H-chromen-2-yl)amino)ethoxy)-3-(phenylsulfonyl)-1,2,5-oxadiazole 2-oxide [12b]	–	–	> 50	> 50
–	–	–	–	26.9 ± 1.08	25.4 ± 1.76	12.5 ± 0.77	> 50	21.5 ± 1.23	4-(3-(6-Methyl-4-oxo-4H-chromene-3-carboxamido)propoxy)-3-(phenylsulfonyl)-1,2,5-oxadiazole 2-oxide [12c]	–	–	> 50	> 50
7.93 ± 0.44	2.98 ± 0.14	12.8 ± 1.46	5.67 ± 0.42	10.6 ± 0.53	–	–	–	–	Cc1ccc2occ(C(=O)N3CCN(CCOc4no[n+]([O-])c4S(=O)(=O)c4ccccc4)CC3)c(=O)c2c1 [14c, 4-(2-(4-(6-Methyl-4-oxo-4H-chromene-3-carbonyl)piperazin-1-yl)ethoxy)-3-(phenylsulfonyl)-1,2,5-oxadiazole 2-oxide]	41.3 ± 2.58	> 50	–	–
> 50	> 50	> 50	> 50	> 50	–	–	–	–	COc1ccc2occ(C(=O)NCCCOc3no[n+]([O-])c3S(=O)(=O)c3ccccc3)c(=O)c2c1 [13c, 4-(3-(6-Methoxy-4-oxo-4H-chromene-3-carboxamido)propoxy)-3-(phenylsulfonyl)-1,2,5-oxadiazole 2-oxide]	> 50	> 50	–	–
–	–	–	–	9.96 ± 0.67	8.64 ± 0.58	4.94 ± 0.25	15.9 ± 0.66	7.91 ± 0.4	4-(3-((3-Carboxy-6-methyl-4-oxo-4H-chromen-2-yl)amino)propoxy)-3-(phenylsulfonyl)-1,2,5-oxadiazole 2-oxide [12d]	–	–	33.6 ± 2.95	> 50
22.4 ± 1.72	8.93 ± 0.36	37.6 ± 2.24	25.6 ± 1.57	23.5 ± 1.61	–	–	–	–	COc1ccc2occ(C(=O)N3CCN(CCOc4no[n+]([O-])c4S(=O)(=O)c4ccccc4)CC3)c(=O)c2c1 [15c, 4-(2-(4-(6-Methoxy-4-oxo-4H-chromene-3-carbonyl)piperazin-1-yl)ethoxy)-3-(phenylsulfonyl)-1,2,5-oxadiazole 2-oxide]	> 50	> 50	–	–
–	–	–	–	> 50	> 50	> 50	> 50	> 50	4-(3-((3-Carboxy-6-methoxy-4-oxo-4H-chromen-2-yl)amino)propoxy)-3-(phenylsulfonyl)-1,2,5-oxadiazole 2-oxide [13d]	–	–	> 50	> 50
–	–	–	–	16.8 ± 0.74	13.2 ± 0.53	5.89 ± 0.26	22.1 ± 1.38	10.6 ± 0.72	4-(2-(6-Methoxy-4-oxo-4H-chromene-3-carboxamido)ethoxy)-3-(phenylsulfonyl)-1,2,5-oxadiazole 2-oxide [13a]	–	–	> 50	> 50
–	–	–	–	26.8 ± 1.22	26.9 ± 1.4	13.6 ± 0.76	24.8 ± 1.28	22.6 ± 1.39	4-(2-((3-Carboxy-6-methoxy-4-oxo-4H-chromen-2-yl)amino)ethoxy)-3-(phenylsulfonyl)-1,2,5-oxadiazole 2-oxide [13b]	–	–	> 50	> 50
–	–	–	–	11.7 ± 0.52	7.87 ± 0.32	2.75 ± 0.17	13.8 ± 0.49	5.38 ± 0.19	4-(2-(4-(3-Carboxy-6-methyl-4-oxo-4H-chromen-2-yl)piperazin-1-yl)ethoxy)-3-(phenlsulfonyl)-1,2,5-oxadiazole 2-oxide [14d]	–	–	28.9 ± 1.43	> 50
